Results published in US7763580B2, “Methods for treating conditions associated with the accumulation of excess extracellular matrix” (University of Utah Research Foundation, priority 1999, dated 2010).

Tests used:
[1] = system: Normal fetal human mesangial cells; test: Renin-induced TGFβ production by fetal human mesangial cells (ELISA); format: cell-based; details: 10^−5 M inhibitor added at zero time with 10^−7 M human recombinant renin, FIG. 3
Description: Normal fetal human mesangial cells (Clonetics Corp., Clonetics, Walkersville, Md.) passaged 5 to 8 times, were plated (3,000 cell/cm^2) in 12 well plates in 2 ml of medium (Mesangial Basal Medium (Clonetics Corp.) containing 5% FCS, 10 μg/ml penicillin and 100 μg/ml streptomycin) and allowed to grow to confluence for 48 hours at 37EC, 5% CO2. Cultures were washed three times using sterile phosphate buffered saline at room temperature and then 2 ml/well of serum free MBM medium to induce quiescence. After 48 hours, the serum-free medium was removed and 2 ml/well of fresh serum-free medium was added. Human recombinant renin (Hoffman-La Roche Ltd., Basel, Switzerland) in concentrations from 10^−6 to 10^−12 M was added to each well. A blank and 5 ng/ml of TGFβ (R & D Systems, Minneapolis, Minn.) were used as controls. Cells and supernatants were harvested by centrifugation after 24 hrs of culture and frozen at ^−70EC until analysis. The total production and release of TGFβ into the culture supernatant was measured using an ELISA kit (R & D Systems). Induction of PAI-1 and fibronectin in the supernatant are also measured using anti-PAI-1 and anti-fibronectin antibodies in an ELISA to provide further confirmation of the inhibition of TGFβ. TGFβ, fibronectin and PAI-1 mRNA are measured using semi-quantitative RT-PCR.
Renin inhibitor Ro42-5892 (Hoffman-LaRoche, Basel, Switzerland), Losartan™ (Merck Pharmaceuticals, West Point, Pa.), Enalapril™ (Sigma Chemical Co., St. Louis, Mo., Prod. No. E6888), or TGFβ1 neutralizing antibody (R & D Systems) were added in the amounts indicated below to separate wells in triplicate to block the renin cascade at different sites after stimulation by renin: • 10^−5 M Renin Inhibitor R042-5892 (Hoffman-LaRoche) • 30 ng/ml Anti-TGFβ1 antibody (R & D Systems, #AB 101 NA) • 30 ng/ml Chicken IgG (control for anti-TGFβ1 antibody, R & D Systems, # AB 101 C) • 10^−5 M Enalapril™ (Sigma Chemical Co., St. Louis, Mo.) • 10^−5 M Losartan™ (Merck Pharmaceuticals, West Point, Pa.)
These inhibitors were added at zero time with 10^−7 M human recombinant renin (Hoffman-LaRoche).

[2] = system: anti-Thy 1 glomerulonephritis; test: Glomerular production of fibronectin, PAI-1 and TGF-β1 (ELISA of cultured glomeruli); format: in vivo, Sprague Dawley rats; details: enalapril alone
Description: Animal housing and care were in accordance with the NIH Guide for the Care and Use of Laboratory Animals, NIH Publication No. 85-23, 1985. Animals were fed a normal protein diet (22% protein, Teklad No. 86 550, Teklad Premier Laboratory Diets, Madison, Wis., USA). Glomerulonephritis was induced by tail vein injection of 2.25 mg/Kg of the monoclonal anti-Thy 1.1 antibody OX-7 (NCCC, Biovest International Inc, Minneapolis, Minn., USA). OX-7 binds to a Thy 1-like epitope on the surface of mesangial cells causing complement-dependent cell lysis followed by fibrotic tissue repair (Bagchus et al., Lab Invest. 55:680-687 (1986)). Control animals were injected with similar volumes of phosphate-buffered saline (PBS). Groups of 8 rats were assigned and treated as outlined in Table 2. Doses of enalapril above […] in drinking water are maximally effective in this model (Peters et al., Kidney Int. 54:1570-1580 (1998)). […] Fibronectin and PAI-1 synthesis were measured with modified ELISA assays according to published methods ([…] al., Anal Biochem 104:205-214 (1980)). TGF-β1 production of cultured glomeruli was measured after acid-activation using a commercially available ELISA kit (DuoSet®, R&D Systems, Minneapolis, Minn., USA) according to the manufacturer's instructions. Three samples from each rat were analyzed. […] The percent reduction in disease severity in a treated group was calculated as: […]

CCOC(=O)[C@H](CCc1ccccc1)N[C@@H](C)C(=O)N1CCC[C@H]1C(=O)O [enalapril]
renin-induced increase in TGFβ production [1]: does not reduce the renin-induced increase in TGFβ production
reduction of fibronectin production [2]: 53%
